Assay [1] deals with T1, PAR2 (HT-29 cells, SLIGKV activation) (Homo sapiens, UniProt P55085).
T1 construct: host or cells: HT-29 cells
T1 sequence (P55085 26-397): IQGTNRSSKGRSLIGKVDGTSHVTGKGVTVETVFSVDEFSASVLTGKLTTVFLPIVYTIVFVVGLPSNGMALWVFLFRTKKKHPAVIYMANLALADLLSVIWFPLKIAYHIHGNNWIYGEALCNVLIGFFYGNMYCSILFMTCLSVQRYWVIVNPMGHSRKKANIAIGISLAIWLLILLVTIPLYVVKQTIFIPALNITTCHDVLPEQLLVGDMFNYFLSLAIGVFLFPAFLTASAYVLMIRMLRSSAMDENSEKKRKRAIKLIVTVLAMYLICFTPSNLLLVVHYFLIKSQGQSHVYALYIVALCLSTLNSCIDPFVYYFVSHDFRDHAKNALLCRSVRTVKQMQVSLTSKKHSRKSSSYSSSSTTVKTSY
The assay can be described thus: Ca FLIPR TETRA assay, ANTAGONIST mode, stimulation with 8 μM SLIGKV. In kind it is cell-based. The settings on record: HT-29 cells, stimulation with 8 μM SLIGKV. Put shortly: (§1)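 FLIPR Tetra Ca2+ read-out in HT-29 cells, calcium 5 dye. Compound preincubation 30 min r.t., with an initial read for agonist activity. Final activator levels: SLIGKV 8 μM, thrombin 1 U/mL, trypsin 3.1 U/mL, UTP 0.6 μM.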

For assay [2], the system named is Thrombin-stimulated Ca2+ response in HT-29 cells. The assay can be described thus: Ca FLIPR TETRA assay, ANTAGONIST mode, stimulation with 1 U/mL Thrombin. In kind it is cell-based, human. The following applies: Homo sapiens; HT-29 cells, stimulation with 1 U/mL Thrombin. Put shortly: as §1
The test system of assay [3] is UTP-stimulated Ca2+ response in HT-29 cells. Kind of assay: Ca FLIPR TETRA assay, ANTAGONIST mode, stimulation with 0.6 μM UTP. In kind it is cell-based, human. The settings on record: Homo sapiens; HT-29 cells, stimulation with 0.6 μM UTP. The method, boiled down: as §1
In assay [4] the target is T2, PAR2 (HT-29 cells, trypsin activation) (Homo sapiens, UniProt P55085).
T2 construct: host or cells: HT-29 cells
T2 sequence (P55085 26-397): T1 sequence (P55085 26-397)
The assay can be described thus: Ca FLIPR TETRA assay, ANTAGONIST mode, stimulation with 3.1 U/mL trypsin. In kind it is cell-based. The following applies: HT-29 cells, stimulation with 3.1 U/mL trypsin. The method, boiled down: as §1

The results in this text go back to patent publication US20190119282A1, “IMIDAZOPYRIDAZINES USEFUL AS INHIBITORS OF THE PAR-2 SIGNALING PATHWAY” (Vertex Pharmaceuticals Incorporated, priority 2013, published 2019).

The structures appear in SMILES notation.

As for `CC(C)c1cc(-c2ccc(F)cc2)nn2cc(C(=O)N3CCN(C(=O)[C@H](O)c4ccccc4Cl)[C@@H](C)C3)nc12` [Compound I-106], the 50% inhibitory concentration (IC50) (in general, the concentration that inhibits the measured activity by half) is 0.0006 µM in assay [1], more than 5 µM in assay [2], more than 5 µM in assay [3] and 0.001 µM in assay [4].
For `CCCCC(O)C(=O)N1CCN(C(=O)c2cn3nc(-c4ccc(F)cc4)cc(C(C)C)c3n2)C[C@@H]1C` (stereo partly shown) [Compound I-107], the IC50 was 0.001 µM in assay [1], 10 µM in assay [2], 9.6 µM in assay [3] and 0.004 µM in assay [4].
For `CC(C)c1cc(-c2ccc(F)cc2)nn2cc(C(=O)N3CCN(C(=O)C(O)c4ccc(F)cc4)[C@@H](C)C3)nc12` (stereo partly shown) [Compound I-108], in that order: 0.0007 µM, 8.3 µM, 16 µM and 0.0007 µM.
For `CC(C)CC(O)C(=O)N1CCN(C(=O)c2cn3nc(-c4ccc(F)cc4)cc(C(C)C)c3n2)C[C@@H]1C` (stereo partly shown) [Compound I-109], in that order: 0.0009 µM, 11 µM, 10 µM and 0.004 µM.
For `CC(C)c1cc(-c2ccc(F)cc2)nn2cc(C(=O)N3CCN(C(=O)[C@@H](O)C(C)C)[C@@H](C)C3)nc12` [Compound I-110], in that order: 0.11 µM, 19 µM, 18 µM and 1.5 µM.
Take `CC(C)c1cc(-c2ccc(F)cc2)nn2cc(C(=O)N3CCN(C(=O)[C@H](O)C(C)C)[C@@H](C)C3)nc12` [Compound I-111]: the IC50 came to 0.007 µM in assay [1], 20 µM in assay [2], 19 µM in assay [3] and 0.015 µM in assay [4].
For `CC(C)c1cc(-c2ccc(F)cc2)nn2cc(C(=O)N3CCN(C(=O)C(C)(C)O)[C@@H](C)C3)nc12` [Compound I-112], in that order: 2.4 µM, 38 µM, 35 µM and 1 µM.
For `CC(C)c1cc(-c2ccc(F)cc2)nn2cc(C(=O)N3CCN(C(=O)C(O)Cc4ccccc4)[C@@H](C)C3)nc12` (stereo partly shown) [Compound I-113], in that order: 0.0008 µM, 8.4 µM, 7.2 µM and 0.003 µM.
Take `CC(C)c1cc(-c2ccc(F)cc2)nn2cc(C(=O)N3CCN(C(=O)[C@H](O)C4CCCCC4)[C@@H](C)C3)nc12` [Compound I-114]: the IC50 in assay [1] was 0.0005 µM; in assay [2] it was 7.7 µM; in assay [3], 8.7 µM; in assay [4], 0.0006 µM.
As to `CC(C)c1cc(-c2ccc(F)cc2)nn2cc(C(=O)N3CCN(C(=O)C4(O)CC4)[C@@H](C)C3)nc12` [Compound I-115], the IC50 is 0.1 µM in assay [1], more than 50 µM in assay [2], more than 50 µM in assay [3] and 0.16 µM in assay [4].
As to `CC(C)c1cc(-c2ccc(F)cc2)nn2cc(C(=O)N3CCN(C(=O)C(O)C(C)C)[C@@H](C)C3)nc12` (stereo partly shown) [Compound I-116], the IC50 in assay [1] is 0.012 µM; in assay [2], 19 µM; in assay [3] it was 22 µM; in assay [4], 0.072 µM.
For `CC(C)c1cc(-c2ccc(F)cc2)nn2cc(C(=O)N3CCN(C(=O)C(O)c4ccccc4)[C@@H](C)C3)nc12` (stereo partly shown) [Compound I-117], in that order: 0.0003 µM, 9.6 µM, 8.1 µM and 0.0009 µM.
As for `CC[C@@H](O)C(=O)N1CCN(C(=O)c2cn3nc(-c4ccc(F)cc4)cc(C(C)C)c3n2)C[C@@H]1C` [Compound I-118], the half-inhibitory concentration (IC50) in assay [1] worked out at 0.016 µM; in assay [2], 31 µM; in assay [3] it was 27 µM; in assay [4] it was 1 µM.
For `CC(O)C(=O)N1CCN(C(=O)c2cn3nc(-c4ccc(F)cc4)cc(C(C)C)c3n2)C[C@@H]1C` (stereo partly shown) [Compound I-119], the IC50 in assay [1] is 0.2 µM; in assay [2] it was more than 50 µM; in assay [3], more than 50 µM; in assay [4], 2.1 µM.
`CC(C)c1cc(-c2ccc(F)cc2)nn2cc(C(=O)N3CCOCC3(C)C)nc12` [Compound I-120]: the concentration for half-maximal inhibition (IC50) in assay [1] was 0.13 µM; in assay [2] it was 20 µM; in assay [3], 24 µM; in assay [4], 1 µM.
In the case of `CC(C)c1cc(-c2ccc(F)cc2)nn2cc(C(=O)N3CCN(C(=O)CC4CCCC4)[C@@H](C)C3)nc12` [Compound I-121], the IC50 was 0.004 µM in assay [1], 9.2 µM in assay [2], more than 0.5 µM in assay [3] and 0.007 µM in assay [4].
For `CC(C)CC(=O)N1CCN(C(=O)c2cn3nc(-c4ccc(F)cc4)cc(C(C)C)c3n2)C[C@@H]1C` [Compound I-122], the IC50 came out at 0.007 µM in assay [1], 10 µM in assay [2], 10 µM in assay [3] and 0.023 µM in assay [4].
Turning to `CC(O)CC(=O)N1CCN(C(=O)c2cn3nc(-c4ccc(F)cc4)cc(C(C)C)c3n2)C[C@@H]1C` (stereo partly shown) [Compound I-123], the IC50 is 0.2 µM in assay [1], more than 50 µM in assay [2], more than 50 µM in assay [3] and 0.34 µM in assay [4].
As for `CCCC(=O)N1CCN(C(=O)c2cn3nc(-c4ccc(F)cc4)cc(C(C)C)c3n2)C[C@@H]1C` [Compound I-124], the IC50 in assay [1] was 0.026 µM; in assay [2], 15 µM; in assay [3] it was 13 µM; in assay [4], 0.16 µM.
For `CC(C)c1cc(-c2ccc(F)cc2)nn2cc(C(=O)N3CCN(C(=O)Cc4ccsc4)[C@@H](C)C3)nc12` [Compound I-125], in that order: 0.002 µM, more than 0.5 µM, more than 0.5 µM and 0.005 µM.
For `C#CCCC(=O)N1CCN(C(=O)c2cn3nc(-c4ccc(F)cc4)cc(C(C)C)c3n2)C[C@@H]1C` [Compound I-126], in that order: 0.025 µM, 13 µM, 13 µM and 0.21 µM.
Regarding `CC(C)CCC(=O)N1CCN(C(=O)c2cn3nc(-c4ccc(F)cc4)cc(C(C)C)c3n2)C[C@@H]1C` [Compound I-127], the IC50 is 0.002 µM in assay [1], 6.5 µM in assay [2], 5.4 µM in assay [3] and 0.004 µM in assay [4].
For `CC(C)c1cc(-c2ccc(F)cc2)nn2cc(C(=O)N3CCN(C(=O)CC4CCCCC4)[C@@H](C)C3)nc12` [Compound I-128], in that order: 0.002 µM, 30 µM, 31 µM and 0.002 µM.
On to `COCCC(=O)N1CCN(C(=O)c2cn3nc(-c4ccc(F)cc4)cc(C(C)C)c3n2)C[C@@H]1C` [Compound I-129], for which the IC50 was 0.12 µM in assay [1], 41 µM in assay [2], 37 µM in assay [3] and 0.5 µM in assay [4].
As to `CC(C)c1cc(-c2ccc(F)cc2)nn2cc(C(=O)N3CCN(C(=O)CC(C)(C)C)[C@@H](C)C3)nc12` [Compound I-130], the IC50 in assay [1] amounted to 0.002 µM; in assay [2], 4.5 µM; in assay [3] it was 5 µM; in assay [4] it was 0.006 µM.
In the case of `CC(C)c1cc(-c2ccc(F)cc2)nn2cc(C(=O)N3CCN(C(=O)CC(C)(C)O)[C@@H](C)C3)nc12` [Compound I-131], the IC50 in assay [1] came out at 0.067 µM; in assay [2], 33 µM; in assay [3], 32 µM; in assay [4] it was 0.65 µM.
For `COc1cccc(CC(=O)N2CCN(C(=O)c3cn4nc(-c5ccc(F)cc5)cc(C(C)C)c4n3)C[C@@H]2C)c1` [Compound I-132], in that order: 0.003 µM, more than 0.5 µM, more than 0.5 µM and 0.005 µM.
For `COc1ccc(CC(=O)N2CCN(C(=O)c3cn4nc(-c5ccc(F)cc5)cc(C(C)C)c4n3)C[C@@H]2C)cc1` [Compound I-133], in that order: 0.001 µM, 36 µM, more than 0.5 µM and 0.006 µM.
Turning to `Cc1cc(C)n(CCC(=O)N2CCN(C(=O)c3cn4nc(-c5ccc(F)cc5)cc(C(C)C)c4n3)C[C@@H]2C)n1` [Compound I-134], the IC50 in assay [1] was determined as 0.012 µM; in assay [2], 10 µM; in assay [3], 7.9 µM; in assay [4], 0.28 µM.
As for `CC(C)c1cc(-c2ccc(F)cc2)nn2cc(C(=O)N3CCN(C(=O)CCn4cccn4)[C@@H](C)C3)nc12` [Compound I-135], the IC50 is 0.022 µM in assay [1], 16 µM in assay [2], 17 µM in assay [3] and 0.22 µM in assay [4].
For `Cc1noc(C)c1CCC(=O)N1CCN(C(=O)c2cn3nc(-c4ccc(F)cc4)cc(C(C)C)c3n2)C[C@@H]1C` [Compound I-136], in that order: 0.007 µM, more than 5 µM, 7.7 µM and 0.034 µM.
